A word on the inhibition: it is the share of the control response that was lost under treatment. One may read the % Inhibition as the relative decrease from the control value, in per cent. Read a high % Inhibition as a response far below the control.

The experiment deals with sulfate reducing bacteria (SRB). The experiment in a line: Serum bottle test: control of H2S generation and sulfate reducing bacteria in synthetic nutrient medium. In kind it is cell-based. How it is done: The test protocol was as follows: 100 mL serum bottles were filled with synthetic nutrient medium, then stoppered, capped, and autoclaved, and allowed to cool to at least 35 ° C. Using a 1 mL syringe with needle, the treatment was added at desired dosages to prepared serum bottles (triplicates of each dosage). No treatment was added for baseline controls. At least 6 baseline serum bottles were used. Using a 1 mL syringe with needle, 0.1 mL of prepared culture was added to each serum bottle. Next, a 10^10 cells/ml concentration of the sulfate reducers was prepared (using autoclaved synthetic nutrient medium) inside an anaerobic chamber. Using a 1 ml syringe with needle, 0.1 ml of the prepared sulfate reducers culture was added to each serum bottle. The bottles were then incubated at the desired temperature. The baseline dissolved sulfide levels were then measured to determine if the samples were ready for efficacy analysis. Using a 30 mL syringe with needle, 30 mL of sample was removed from each serum bottle. About 25 mL of the sample was added to a 30 mL bottle containing 0.125 mL zinc acetate solution, followed by adding 1 mL of 1N NaOH. The sulfide in the fixed sample was then measured. The remaining 5 mL of sample in the syringe was used for pH determination.

Where [1] appears, read: H2S generation, inhibitor concentration 1 ppm.
[2] abbreviates: H2S generation, inhibitor concentration 2.5 ppm.
[3] abbreviates: H2S generation, inhibitor concentration 5 ppm.
Setting [4] is: inhibitor concentration 2.5 ppm.
The mark [5] stands for this setting: inhibitor concentration 100 ppm.

Values joined by “and” are separate entries in the source; they are usually repeats but may differ in a detail not shown here. Equal entries are not always repeated. Structures can show the parent of a compound that is named as a salt.

As to `[H]/N=C(\N/C(=N/[H])NCCCCCCNC(=N)NC(=N)Nc1ccc(Cl)cc1)Nc1ccc(Cl)cc1` [Chlorhexidine dihydrochloride], at 1 ppm the inhibition under setting [1] was 96%. Further, for the setting “H2S generation, inhibitor concentration 1 ppm, dihydrochloride”, the “% Inhibition” value was 98% and 95%. Under setting [2], this compound had an inhibition at 2.5 ppm of 100%. This compound gave an inhibition at 5 ppm under setting [3] of 100%. Besides, the “H2S concentration (ppm)” value was 0 ppm under setting [4] and 0 ppm (inhibitor concentration 5 ppm). The same compound showed an inhibition at 25 ppm (inhibitor concentration 25 ppm) of 99%. The compound further displayed an inhibition at 50 ppm (inhibitor concentration 50 ppm) of 99%. In addition, under setting [5], testing at 100 ppm gave an inhibition of 100%.
Take `N=C(NCCCCCCNC(=N)NC(=N)Nc1ccc(Cl)cc1)NC(=N)Nc1ccc(Cl)cc1.O=C(O)[C@H](O)[C@@H](O)[C@H](O)[C@H](O)CO.O=C(O)[C@H](O)[C@@H](O)[C@H](O)[C@H](O)CO` [Chlorhexidine digluconate]: the “% Inhibition” value by setting is: under setting [1], 100%; under setting [2], 100%; under setting [3], 100%. The “H2S concentration (ppm)” value worked out at 0 ppm (inhibitor concentration 1 ppm), 0 ppm under setting [4] and 0 ppm (inhibitor concentration 5 ppm). The “% H2S Inhibition” value by setting is: (inhibitor concentration 25 ppm) 99%; (inhibitor concentration 50 ppm) 99%; under setting [5], 99% and 100%.
